What was measured:
[1] = Lipophilicity, log D at pH 7.4; assay type: physicochemical; details: buffer
[2] = (§1) Metabolic stability in human liver microsomes assessed as clearance measured per mg of protein; assay type: ADME, Microsome; details: liver microsomes
[3] = Apparent permeability from apical to basolateral side of human Caco-2 cells; assay type: ADME, cell-based; details: read-out: permeability
[4] = Apparent permeability from basolateral to apical side of human Caco-2 cells; assay type: ADME, cell-based; details: read-out: permeability
[5] = system: Human immunodeficiency virus 1; experiment: Antiviral activity against HIV1 BAL assessed as inhibition of viral replication; assay type: functional; details: Human immunodeficiency virus 1, BAL
[6] = Clearance in iv dosed Sprague-Dawley rat; assay type: ADME, organism-based; details: in vivo
[7] = Volume of distribution in iv dosed Sprague-Dawley rat; assay type: ADME, organism-based; details: in vivo
[8] = Half life in iv dosed Sprague-Dawley rat; assay type: ADME, organism-based; details: in vivo
[9] = Oral bioavailability in Sprague-Dawley rat; assay type: ADME, organism-based; details: in vivo
Liver microsomes = experiment: as §1; assay type: ADME, Microsome; details: microsomes

In the case of `Cc1nc(C(C)C)n([C@@H]2C[C@H]3CC[C@@H](C2)N3CC[C@H](NC(=O)C2CCC(F)(F)CC2)c2ccccc2)n1`, the logD ([1]; read-out: logD) is reported as 2.7, the microsomal CLint [2] is reported as 6 µL/min/mg and the Papp A→B [3] is reported as 11 ×10⁻⁶ cm/s. It also gave a Papp B→A [4] of 26 ×10⁻⁶ cm/s.
In the case of `Cc1nnc(C(C)C)n1C1CCN([C@H](C)C[C@H](NC(=O)C2CC(F)(F)C2)c2ccccc2)CC1`, the logD ([1]; read-out: logD) is reported as 2.2, the microsomal CLint [2] is reported as 12 µL/min/mg and the IC90 [5] is reported as 1.8 nM. The clearance [6] was 92 mL/min/kg, the Vd [7] was 10 L/kg and the half-life [8] was 1.3 h. It also gave a bioavailability [9] of 6%.
For `Cc1nnc(C(C)C)n1C1CCN([C@@H](C)C[C@H](NC(=O)C2CCC(F)(F)CC2)c2ccccc2)CC1`, the logD ([1]; read-out: logD) was 2.2 and the microsomal CLint [2] was < 7 µL/min/mg.
For `Cc1nnc(C(C)C)n1C1CCN(C(C)C[C@H](NC(=O)C2CC2)c2ccccc2)CC1` (mixture of isomers), the microsomal CLint [2] was < 8 µL/min/mg.
With `CC(=O)N[C@@H](CC(C)N1CCC(n2c(C)nnc2C(C)C)CC1)c1ccccc1` (mixture of isomers) the microsomal CLint [2] was < 8 µL/min/mg.
Work on `Cc1nnc(C(C)C)n1C1CCN(C(C)C[C@H](NC(=O)CC(F)(F)F)c2ccccc2)CC1` (mixture of isomers) yielded a microsomal CLint [2] of 11.4 µL/min/mg.
Compound `Cc1nnc(C(C)C)n1C1CCN(C(C)C[C@H](NC(=O)COCC(F)(F)F)c2ccccc2)CC1` (mixture of isomers) has a microsomal CLint [2] of 61.6 µL/min/mg.
`Cc1nnc(C(C)C)n1C1CCN(C(C)C[C@H](NC(=O)C2CCCCC2)c2ccccc2)CC1` (mixture of isomers) gave a logD ([1]; read-out: logD) of 2.5 and a microsomal CLint [2] of 139 µL/min/mg.
In the case of `Cc1nnc(C(C)C)n1C1CCN(C(C)C[C@H](NC(=O)C(C)C)c2ccccc2)CC1` (mixture of isomers), the microsomal CLint [2] is reported as < 8 µL/min/mg.
With `Cc1nnc(C(C)C)n1C1CCN(C(C)C[C@H](NC(=O)N2CCOCC2)c2ccccc2)CC1` (mixture of isomers) the microsomal CLint [2] was < 8 µL/min/mg.
For `Cc1nnc(C(C)C)n1C1CCN(C(C)C[C@H](NC(=O)C2CCS(=O)(=O)CC2)c2ccccc2)CC1` (mixture of isomers), the logD ([1]; read-out: logD) was 0.5.
With `CC(=O)N1CCC(C(=O)N[C@@H](CC(C)N2CCC(n3c(C)nnc3C(C)C)CC2)c2ccccc2)CC1` (mixture of isomers) the microsomal CLint [2] was < 8 µL/min/mg.
With `COC(=O)N[C@@H](CC(C)N1CCC(n2c(C)nnc2C(C)C)CC1)c1ccccc1` (mixture of isomers) the logD ([1]; read-out: logD) was 1.5 and the microsomal CLint [2] was < 7 µL/min/mg.
Compound `Cc1nnc(C(C)C)n1C1CCN(C(C)C[C@H](NC(=O)C2CCOCC2)c2ccccc2)CC1` (mixture of isomers) has a microsomal CLint [2] of 10.8 µL/min/mg.
In the case of `Cc1nnc(C(C)C)n1C1CCN(C(C)C[C@H](NC(=O)CC2CC2)c2ccccc2)CC1` (mixture of isomers), the logD ([1]; read-out: logD) is reported as 1.9.
In the case of `Cc1nnc(C(C)C)n1C1CCN(C(C)C[C@H](NC(=O)C2CC(F)(F)C2)c2ccccc2)CC1` (mixture of isomers; form 1), the logD [1] is reported as 2 and the CL (Liver microsomes) is reported as < 7 µL/min/mg.
`Cc1nnc(C(C)C)n1C1CCN(C(C)C[C@H](NC(=O)C2CCC(F)(F)CC2)c2ccccc2)CC1` (mixture of isomers; form 1) showed a logD ([1]; read-out: logD) of 2 and a CL (Liver microsomes) of 19 µL/min/mg.
Compound `Cc1nnc(C(C)C)n1C1CCN(C(C)C[C@H](NC(=O)C2CCC(F)(F)CC2)c2ccccc2)CC1.Cl` (mixture of isomers; form 2) has a logD [1] of 2 and a microsomal CLint [2] of 16 µL/min/mg.
In the case of `Cc1nnc(C(C)C)n1C1CCN(C(C)C[C@H](NC(=O)C2CC(F)(F)C2)c2ccccc2)CC1` (mixture of isomers; form 2), the logD ([1]; read-out: logD) is reported as 1.9 and the microsomal CLint [2] is reported as < 7 µL/min/mg.
In the case of `Cc1nnc(C(C)C)n1[C@@H]1C[C@H]2CC[C@@H](C1)N2CC[C@H](NC(=O)C1CCC(F)(F)CC1)c1ccccc1` [MARAVIROC], the logD ([1]; read-out: logD) is reported as 1.9, the microsomal CLint [2] is reported as 20 µL/min/mg and the Papp A→B [3] is reported as 1 ×10⁻⁶ cm/s. The Papp B→A [4] was 10 ×10⁻⁶ cm/s, the clearance [6] was 74 mL/min/kg and the Vd [7] was 6.5 L/kg. The half-life [8] was 0.9 h.
With `Cc1nnc(C(C)C)n1[C@H]1C[C@H]2CC[C@@H](C1)N2CC[C@H](NC(=O)C1CCC(F)(F)CC1)c1ccccc1` [MARAVIROC] the IC90 [5] was 2.8 nM.

Source: ChEMBL document CHEMBL1152883, “1-Amido-1-phenyl-3-piperidinylbutanes--CCR5 antagonists for the treatment of HIV: part 2” (Bioorg Med Chem Lett, 2009)
